Measurements as given in US11000033B2, “Ketone or oxime compound, and herbicide” (NISSAN CHEMICAL CORPORATION, priority 2014, dated 2021).

Key:
Type in all cases: in vivo
[1] = tested on: Apera spica-venti; experiment: Test Example 5: herbicidal effect by foliage application, plastic box (symbol L); settings: 320 g/ha, 3 weeks after application
Procedure, shortened: (§1)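 Emulsion formulation, diluted with water to the intended rate, was applied uniformly to leaves by small sprayer. Recipients were 14-day greenhouse-grown seedlings (25° C. to 30° C.). Assessment followed at 3 weeks.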

[2] = tested on: Avena fatua; experiment: Test Example 5: herbicidal effect by foliage application, plastic box (symbol I); settings: 320 g/ha, 3 weeks after application
Procedure, shortened: as §1

[3] = tested on: Abutilon theophrasti; experiment: Test Example 4: herbicidal effect by soil treatment (symbol M); settings: application herbicide amount 320 g/ha
Procedure, shortened: (§2)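 Seeds were sown in sterilized diluvial soil, covered with about 1.5 cm of soil, and the soil surface was sprayed with a water-diluted emulsion of the compound at a predetermined rate. Plants grew in a greenhouse at 25° C. to 30° C.; effects were scored visually 3 weeks after application.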

[4] = tested on: Galium spurium; experiment: Test Example 4: herbicidal effect by soil treatment (symbol Q)
Procedure, shortened: as §2

[5] = tested on: Lolium multiflorum Lam.; experiment: Test Example 5: herbicidal effect by foliage application, plastic box (symbol K); settings: 320 g/ha, 3 weeks after application
Procedure, shortened: as §1

[6] = tested on: rapeseed; experiment: Test Example 5: effect on crop by foliage application, plastic box (symbol g); settings: 320 g/ha, 3 weeks after application
Procedure, shortened: (§3)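 Greenhouse test at 25° C. to 30° C. Seeds of crops and weeds were spot-sown in boxes of sterilized diluvial soil under roughly 1.5 cm soil cover, then grown for foliage treatment.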

[7] = tested on: Scirpus juncoides; experiment: Test Example 1: herbicidal activity, application before weed generation in submerged conditions (symbol B); settings: application herbicide amount 320 g/ha
Procedure, shortened: (§4)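 In a flooded pot test with alluvial soil, the emulsion-formulated compound was diluted with water to a predetermined amount and applied to the floodwater immediately on the sowing day. Pots were held in a greenhouse at 25–30 °C for 3 weeks before each weed was rated.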

[8] = tested on: directly sowed rice plant; experiment: Test Example 3: effect on crop by foliage application, Wagner pot (symbol b); settings: application herbicide amount 320 g/ha; for b (directly sowed rice plant) effect on crop grade: Table 24
Procedure, shortened: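 Steps: fill a 1/10000-are Wagner pot with alluvial soil; add water and mix to submerge at 0.1–0.5 cm depth; sow rice plus Echinochloa crus-galli var. crus-galli, Leptochloa chinensis and Cyperus difformis; grow in a 25–30 °C greenhouse.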

[9] = tested on: Monochoria vaginalis; experiment: Test Example 1: herbicidal activity, application before weed generation in submerged conditions (symbol C); settings: application herbicide amount 320 g/ha
Procedure, shortened: as §4

[10] = tested on: Digitaria ciliaris; experiment: Test Example 5: herbicidal effect by foliage application, plastic box (symbol F); settings: 320 g/ha, 3 weeks after application
Procedure, shortened: as §1

[11] = tested on: Veronica persica; experiment: Test Example 4: herbicidal effect by soil treatment (symbol R)
Procedure, shortened: as §2

[12] = tested on: Echinochloa oryzacola Vasing.; experiment: Test Example 1: herbicidal activity, application before weed generation in submerged conditions (symbol A); settings: application herbicide amount 320 g/ha
Procedure, shortened: as §4

[13] = tested on: Galium spurium; experiment: Test Example 5: herbicidal effect by foliage application, plastic box (symbol Q); settings: 320 g/ha, 3 weeks after application
Procedure, shortened: as §1

[14] = tested on: Setaria viridis; experiment: Test Example 4: herbicidal effect by soil treatment (symbol G)
Procedure, shortened: as §2

[15] = tested on: transplanted rice plant; experiment: Test Example 1: effect on crop, application before weed generation in submerged conditions (symbol a); settings: application herbicide amount 320 g/ha
Procedure, shortened: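 Rice at 2.5 leaf stage transplanted into submerged soil (4 cm depth) sown with three weed species; herbicide applied before weed emergence.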

[16] = tested on: wheat; experiment: Test Example 5: effect on crop by foliage application, plastic box (symbol e); settings: 320 g/ha, 3 weeks after application
Procedure, shortened: as §3

[17] = tested on: Stellaria media; experiment: Test Example 4: herbicidal effect by soil treatment (symbol P)
Procedure, shortened: as §2

[18] = tested on: Apera spica-venti; experiment: Test Example 4: herbicidal effect by soil treatment (symbol L); settings: application herbicide amount 320 g/ha
Procedure, shortened: as §2

[19] = application herbicide amount 320 g/ha

Structure (SMILES)	L: Apera spica-venti, herbicidal effect grade [1]	I: Avena fatua, herbicidal effect grade [2]	M: Abutilon theophrasti, herbicidal effect grade [3]	Q: Galium spurium, herbicidal effect grade [4, 19]	K: Lolium multiflorum Lam., herbicidal effect grade [5]	g: rapeseed, effect on crop grade [6]	B (Scirpus juncoides) herbicidal effect grade [7]	b (directly sowed rice plant) effect on crop grade [8]	C (Monochoria vaginalis) herbicidal effect grade [9]	F: Digitaria ciliaris, herbicidal effect grade [10]	R: Veronica persica, herbicidal effect grade [11, 19]	A (Echinochloa oryzacola Vasing.) herbicidal effect grade [12]	Q: Galium spurium, herbicidal effect grade [13]	G: Setaria viridis, herbicidal effect grade [14, 19]	a (transplanted rice plant) effect on crop grade [15]	e: wheat, effect on crop grade [16]	P: Stellaria media, herbicidal effect grade [17, 19]	other results
CON=C(CC1CC(O)=C(c2c(C)cc(C)cc2OC)C1=O)C1CC1 (mixture of isomers) [13-002]	5 (Herbicidal ratio of 90% or more (almost completely withered))	5 (Herbicidal ratio of 90% or more (almost completely withered))	0 (Herbicidal ratio of 5% or lower (almost no effect))	0 (Herbicidal ratio of 5% or lower (almost no effect))	5 (Herbicidal ratio of 90% or more (almost completely withered))	4 (Herbicidal ratio of 70% or higher and lower than 90%)	4 (Herbicidal ratio of 70% or higher and lower than 90%)	5 (Herbicidal ratio of 90% or more (almost completely withered))	0 (Herbicidal ratio of 5% or lower (almost no effect))	5 (Herbicidal ratio of 90% or more (almost completely withered))	0 (Herbicidal ratio of 5% or lower (almost no effect))	5 (Herbicidal ratio of 90% or more (almost completely withered))	4 (Herbicidal ratio of 70% or higher and lower than 90%)	5 (Herbicidal ratio of 90% or more (almost completely withered))	5 (Herbicidal ratio of 90% or more (almost completely withered))	5 (Herbicidal ratio of 90% or more (almost completely withered))	0 (Herbicidal ratio of 5% or lower (almost no effect))	
CCC(CC1CC(O)=C(c2c(C)cc(C)cc2OC)C1=O)=NOC (mixture of isomers) [13-003]	5 (Herbicidal ratio of 90% or more (almost completely withered))	5 (Herbicidal ratio of 90% or more (almost completely withered))	4 (Herbicidal ratio of 70% or higher and lower than 90%)	0 (Herbicidal ratio of 5% or lower (almost no effect))	5 (Herbicidal ratio of 90% or more (almost completely withered))	4 (Herbicidal ratio of 70% or higher and lower than 90%)	5 (Herbicidal ratio of 90% or more (almost completely withered))	5 (Herbicidal ratio of 90% or more (almost completely withered))	0 (Herbicidal ratio of 5% or lower (almost no effect))	5 (Herbicidal ratio of 90% or more (almost completely withered))	0 (Herbicidal ratio of 5% or lower (almost no effect))	5 (Herbicidal ratio of 90% or more (almost completely withered))	3 (Herbicidal ratio of 40% or higher and lower than 70%)	5 (Herbicidal ratio of 90% or more (almost completely withered))	5 (Herbicidal ratio of 90% or more (almost completely withered))	5 (Herbicidal ratio of 90% or more (almost completely withered))	0 (Herbicidal ratio of 5% or lower (almost no effect))	
CON=C(CC1CC(OC(=O)N2CCOCC2)=C(c2c(C)cc(C)cc2OC)C1=O)C1CC1 (mixture of isomers) [13-005]	5 (Herbicidal ratio of 90% or more (almost completely withered))	5 (Herbicidal ratio of 90% or more (almost completely withered))	0 (Herbicidal ratio of 5% or lower (almost no effect))	0 (Herbicidal ratio of 5% or lower (almost no effect))	5 (Herbicidal ratio of 90% or more (almost completely withered))	3 (Herbicidal ratio of 40% or higher and lower than 70%)	0 (Herbicidal ratio of 5% or lower (almost no effect))	5 (Herbicidal ratio of 90% or more (almost completely withered))	2 (Herbicidal ratio of 20% or higher and lower than 40%)	5 (Herbicidal ratio of 90% or more (almost completely withered))	0 (Herbicidal ratio of 5% or lower (almost no effect))	5 (Herbicidal ratio of 90% or more (almost completely withered))	0 (Herbicidal ratio of 5% or lower (almost no effect))	0 (Herbicidal ratio of 5% or lower (almost no effect))	5 (Herbicidal ratio of 90% or more (almost completely withered))	5 (Herbicidal ratio of 90% or more (almost completely withered))	0 (Herbicidal ratio of 5% or lower (almost no effect))	
CC(CC1CC(O)=C(c2c(C)cc(C)cc2C)C1=O)=NOCc1ccc(F)cc1 (stereo not drawn) [1-136]																		L: Apera spica-venti, herbicidal effect (criteria 0-5) [1]: 5 (Herbicidal ratio of 90% or more (almost completely withered)); I: Avena fatua, herbicidal effect (criteria 0-5) [2]: 4 (Herbicidal ratio of 70% or higher and lower than 90%); Q: Galium spurium, herbicidal effect grade ([4]; 320 g/ha): 0 (Herbicidal ratio of 5% or lower (almost no effect)); K: Lolium multiflorum Lam., herbicidal effect (criteria 0-5) [5]: 5 (Herbicidal ratio of 90% or more (almost completely withered)); g: rapeseed, effect on crop (criteria 0-5) [6]: 4 (Herbicidal ratio of 70% or higher and lower than 90%); Herbicidal effect grade, B: Scirpus juncoides [7]: 5 (Herbicidal ratio of 90% or more (almost completely withered)); effect on crop b (directly sowed rice plant), grade 0-5 [8]: 5 (Herbicidal ratio of 90% or more (almost completely withered)); Herbicidal effect grade, C: Monochoria vaginalis [9]: 5 (Herbicidal ratio of 90% or more (almost completely withered)); F: Digitaria ciliaris, herbicidal effect (criteria 0-5) [10]: 5 (Herbicidal ratio of 90% or more (almost completely withered)); R: Veronica persica, herbicidal effect grade ([11]; 320 g/ha): 0 (Herbicidal ratio of 5% or lower (almost no effect)); Herbicidal effect grade, A: Echinochloa oryzacola Vasing. [12]: 5 (Herbicidal ratio of 90% or more (almost completely withered)); Q: Galium spurium, herbicidal effect (criteria 0-5) [13]: 4 (Herbicidal ratio of 70% or higher and lower than 90%); G: Setaria viridis, herbicidal effect grade ([14]; 320 g/ha): 5 (Herbicidal ratio of 90% or more (almost completely withered)); Effect grade on crop, a: transplanted rice plant [15]: 5 (Herbicidal ratio of 90% or more (almost completely withered)); e: wheat, effect on crop (criteria 0-5) [16]: 3 (Herbicidal ratio of 40% or higher and lower than 70%); P: Stellaria media, herbicidal effect grade ([17]; 320 g/ha): 0 (Herbicidal ratio of 5% or lower (almost no effect))
CC#Cc1cc(C)c(C2=C(O)CC(CC(=NOCCOC)C3CC3)C2=O)c(C)c1 (stereo not drawn) [9-021]	5 (Herbicidal ratio of 90% or more (almost completely withered))	4 (Herbicidal ratio of 70% or higher and lower than 90%)			5 (Herbicidal ratio of 90% or more (almost completely withered))	4 (Herbicidal ratio of 70% or higher and lower than 90%)	5 (Herbicidal ratio of 90% or more (almost completely withered))	5 (Herbicidal ratio of 90% or more (almost completely withered))	2 (Herbicidal ratio of 20% or higher and lower than 40%)	5 (Herbicidal ratio of 90% or more (almost completely withered))		5 (Herbicidal ratio of 90% or more (almost completely withered))			5 (Herbicidal ratio of 90% or more (almost completely withered))	4 (Herbicidal ratio of 70% or higher and lower than 90%)		Herbicidal effect grade, M: Abutilon theophrasti [3]: 1 (Herbicidal ratio of 5% or higher and lower than 20%); Herbicidal effect grade, Q: Galium spurium [4, 19]: 0 (Herbicidal ratio of 5% or lower (almost no effect)); Herbicidal effect grade, R: Veronica persica [11, 19]: 3 (Herbicidal ratio of 40% or higher and lower than 70%); Herbicidal effect grade, G: Setaria viridis [14, 19]: 5 (Herbicidal ratio of 90% or more (almost completely withered)); Herbicidal effect grade, P: Stellaria media [17, 19]: 0 (Herbicidal ratio of 5% or lower (almost no effect)); Herbicidal effect grade, L: Apera spica-venti [18]: 5 (Herbicidal ratio of 90% or more (almost completely withered))
